Data as given in US8143246B2, “1-(4-(pyridin-2-yl)benzyl)imidazolidine-2,4-dione derivatives” (MSD OSS B.V., priority 2008, dated 2012).

Columns and labels:
[1] = system: mechanical allodynia induced by spinal nerve ligation in rats; assay: Rat (Chung) model of neuropathic pain; type: in vivo; conditions: for Withdrawal threshold (g) at peak effect: p.o., male Wistar rats, von Frey, mean ± s.e.m.
Description: The Rat (Chung) Model of Neuropathic Pain
In this model, mechanical allodynia is induced by tight ligation of the left L5 spinal nerve.
Male Wistar rats (228-301 g body weight at time of surgery) were employed in the study. Rats were placed on an elevated (˜40 cm) mesh floor in perspex boxes and the rats' withdrawal threshold to a mechanical stimulus (calibrated von Frey filaments) was measured using filaments of increasing force (2.6-167 mN) as described above. The von Frey filaments were applied to the plantar surface of the paw and threshold response determined using the up and down method. A positive response was noted if the paw was sharply withdrawn. A cut-off of 15 g was selected as the upper limit for testing. Following baseline measurements each animal was anaesthetised and the L5 spinal nerve tightly ligated. The animals were allowed to recover from the surgery for a period of at least three days. On the day of drug administration the paw withdrawal thresholds were re-measured (0 min). Immediately after this reading, the rats were dosed orally with vehicle or test compound and readings measured at various time points after compound administration.
Data were expressed as mean±s.e.m. Statistical analysis was performed using the Kruskal-Wallis one-way analysis of variance, a non-parametric statistical test. Each of the treatment groups were then compared against the vehicle group, using the non-parametric Dunn's test.

[2] = system: mechanical hyperalgesia induced by complete Freund's adjuvant in rats; assay: Mechanical hyperalgesia in the rat (CFA inflammatory pain); type: in vivo; conditions: for % Attenuation of hyperalgesia (peak effect): p.o., male Wistar rats, Randall-Sellito, 24 h after CFA, mean ± s.e.m.
Description: Mechanical Hyperalgesia in the Rat
In this rat model of inflammatory pain, inflammation is induced by subcutaneous injection of complete Freund's adjuvant (CFA) into the hind paw. The associated mechanical hyperalgesia is quantified by measuring the reduction in paw withdrawal threshold (PWT) to mechanical compression the paw.
Experiments were conducted using male Wistar rats weighing (141-175 g). In brief, the rats' paw withdrawal threshold (PWT) to a mechanical compression of the hind paw was measured (baseline reading) using a Randall-Sellito apparatus (Ugo Basile). A cut-off of 20 g was employed to minimise tissue damage to the paw. The animals were then lightly anaesthetised with isoflurane (1-3%) and complete Freund's adjuvant (0.1 ml per paw) was injected subcutaneously (s.c.) into the plantar surface of the left hind paw. The animals were then returned to their home cage and left for the inflammation to develop. Twenty four hours after CFA injection, PWT's were re-measured (0 min) and immediately after this reading, rats were dosed orally with either vehicle or test compound (4.4-43.8 μmol/kg p.o. of compound 12). Readings were then made at 3 h post administration. Data were plotted as mean±s.e.m. and compared between groups using the Kruskal-Wallis one-way analysis of variance, a non-parametric statistical test. […] The percent attenuation of mechanical hyperalgesia is calculated as follows: […]

CC(C)CN1C(=O)CN(Cc2ccc(-c3cccc(CN4CCCCC4)n3)cc2)C1=O [Example 12, 3-Isobutyl-1-(4-(6-(piperidin-1-ylmethyl)pyridin-2-yl)benzyl)imidazolidine-2,4-dione]
Effect on mechanical allodynia ([1]; oral, 120 and 180 min post drug administration): attenuated mechanical allodynia in a dose-dependent fashion | Minimum effective dose (MED) ([1]; oral, mechanical allodynia): 43.8 µmol/kg | Withdrawal threshold (g) at peak effect ([1]; 4.4 μmol/kg): 2.40 ± 0.64 g | Withdrawal threshold (g) at peak effect ([1]; 13.2 μmol/kg): 4.32 ± 1.63 g | Withdrawal threshold (g) at peak effect ([1]; 43.8 μmol/kg, p ≦ 0.01 vs vehicle): 8.97 ± 2.21 g | Effect on mechanical hyperalgesia induced by CFA ([2]; oral, 4.4-43.8 μmol/kg): reversed mechanical hyperalgesia induced by CFA in a dose-dependent fashion | MED ([2]; oral, CFA-induced mechanical hyperalgesia): 13.2 µmol/kg | % Attenuation of hyperalgesia (peak effect) ([2]; 4.4 μmol/kg): 58.64 ± 27.32% | % Attenuation of hyperalgesia (peak effect) ([2]; 13.2 μmol/kg, p ≦ 0.01 vs vehicle): 69.70 ± 12.88 % | % Attenuation of hyperalgesia (peak effect) ([2]; 43.8 μmol/kg, p ≦ 0.001 vs vehicle): 116.74 ± 23.78 %
